The record followed here is PMC8131363 (Scientific Reports, 2021).

For assay [1], the system named is cCaSR. Particulars: for EC50 Ago (M): Supplementary Table I, dash = no activity.
Assay [2] concerns cCaSR. The assay is described as follows: cCaSR PAM luminescence assay, double injection with 0.5 mM CaCl2, HEK293/T-REx/natClytin-cCaSR. Particulars: Supplementary Table I, PAM assay, dash = no activity.
In a further assay the target is T1, hCaSR (Homo sapiens, UniProt P41180).
T1 construct: expressed in transfected cells; host or cells: HEK293/natClytin (transient, pcDNA6 as delivered by GeneArt)
T1 sequence (P41180 20-1078): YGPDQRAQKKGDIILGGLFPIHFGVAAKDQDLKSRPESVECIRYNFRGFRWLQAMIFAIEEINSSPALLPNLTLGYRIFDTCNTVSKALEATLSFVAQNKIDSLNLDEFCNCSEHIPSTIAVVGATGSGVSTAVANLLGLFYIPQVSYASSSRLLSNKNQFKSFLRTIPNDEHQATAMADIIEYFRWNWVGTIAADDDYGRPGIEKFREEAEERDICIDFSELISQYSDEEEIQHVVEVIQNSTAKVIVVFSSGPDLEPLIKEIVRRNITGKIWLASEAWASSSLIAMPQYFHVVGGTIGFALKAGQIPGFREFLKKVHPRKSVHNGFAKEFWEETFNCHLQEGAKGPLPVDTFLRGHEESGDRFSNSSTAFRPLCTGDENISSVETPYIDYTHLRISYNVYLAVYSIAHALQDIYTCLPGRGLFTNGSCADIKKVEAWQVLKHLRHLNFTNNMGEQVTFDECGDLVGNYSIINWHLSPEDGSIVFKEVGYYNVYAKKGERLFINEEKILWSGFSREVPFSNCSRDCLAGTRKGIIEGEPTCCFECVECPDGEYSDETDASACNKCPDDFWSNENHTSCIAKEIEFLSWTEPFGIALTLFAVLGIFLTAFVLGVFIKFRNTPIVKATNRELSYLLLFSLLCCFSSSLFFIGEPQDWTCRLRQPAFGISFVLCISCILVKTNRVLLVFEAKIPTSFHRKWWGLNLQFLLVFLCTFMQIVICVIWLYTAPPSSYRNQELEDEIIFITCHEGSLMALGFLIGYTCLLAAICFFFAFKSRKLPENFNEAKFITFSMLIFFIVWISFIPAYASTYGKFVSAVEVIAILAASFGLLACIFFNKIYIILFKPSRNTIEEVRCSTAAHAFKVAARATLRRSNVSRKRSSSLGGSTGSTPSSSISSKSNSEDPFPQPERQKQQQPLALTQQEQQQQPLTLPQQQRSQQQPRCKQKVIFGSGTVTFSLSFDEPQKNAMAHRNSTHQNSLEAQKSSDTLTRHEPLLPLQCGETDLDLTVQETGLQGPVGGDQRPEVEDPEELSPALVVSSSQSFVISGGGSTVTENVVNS
The assay is described as follows: hCaSR transiently expressed in HEK293/natClytin, agonist luminescence assay. Type of assay: cell-based. On the procedure: (§1) The coding sequence of the Felis catus[52] and Homo sapiens[53] CaSR gene was synthesised by GeneArt (Thermo Fisher Scientific). The cat coding sequence was excised from the GeneArt construct and inserted in pcDNA3.1 for constitutive and transient expression or pcDNA5/ TO for inducible expression. For the human sequence the pcDNA6 vector as delivered by GeneArt was used without further sub-cloning.
(§2) All transient transfections were performed with Lipofectamine 2000 (Invitrogen) according to the manufacturer’s protocol.

The subject of assay [3] is cCaSR. Put plainly: cCaSR transiently expressed in HEK293/natClytin, agonist luminescence assay. The following applies: transiently expressed cCaSR; > 3 mM = maximal response not reached. Type of assay: cell-based, Felis catus. On the procedure: as §1, §2
Assay [4] addresses T2, cCaSR (Felis catus, UniProt C7FF08).
T2 sequence (C7FF08 1-1081): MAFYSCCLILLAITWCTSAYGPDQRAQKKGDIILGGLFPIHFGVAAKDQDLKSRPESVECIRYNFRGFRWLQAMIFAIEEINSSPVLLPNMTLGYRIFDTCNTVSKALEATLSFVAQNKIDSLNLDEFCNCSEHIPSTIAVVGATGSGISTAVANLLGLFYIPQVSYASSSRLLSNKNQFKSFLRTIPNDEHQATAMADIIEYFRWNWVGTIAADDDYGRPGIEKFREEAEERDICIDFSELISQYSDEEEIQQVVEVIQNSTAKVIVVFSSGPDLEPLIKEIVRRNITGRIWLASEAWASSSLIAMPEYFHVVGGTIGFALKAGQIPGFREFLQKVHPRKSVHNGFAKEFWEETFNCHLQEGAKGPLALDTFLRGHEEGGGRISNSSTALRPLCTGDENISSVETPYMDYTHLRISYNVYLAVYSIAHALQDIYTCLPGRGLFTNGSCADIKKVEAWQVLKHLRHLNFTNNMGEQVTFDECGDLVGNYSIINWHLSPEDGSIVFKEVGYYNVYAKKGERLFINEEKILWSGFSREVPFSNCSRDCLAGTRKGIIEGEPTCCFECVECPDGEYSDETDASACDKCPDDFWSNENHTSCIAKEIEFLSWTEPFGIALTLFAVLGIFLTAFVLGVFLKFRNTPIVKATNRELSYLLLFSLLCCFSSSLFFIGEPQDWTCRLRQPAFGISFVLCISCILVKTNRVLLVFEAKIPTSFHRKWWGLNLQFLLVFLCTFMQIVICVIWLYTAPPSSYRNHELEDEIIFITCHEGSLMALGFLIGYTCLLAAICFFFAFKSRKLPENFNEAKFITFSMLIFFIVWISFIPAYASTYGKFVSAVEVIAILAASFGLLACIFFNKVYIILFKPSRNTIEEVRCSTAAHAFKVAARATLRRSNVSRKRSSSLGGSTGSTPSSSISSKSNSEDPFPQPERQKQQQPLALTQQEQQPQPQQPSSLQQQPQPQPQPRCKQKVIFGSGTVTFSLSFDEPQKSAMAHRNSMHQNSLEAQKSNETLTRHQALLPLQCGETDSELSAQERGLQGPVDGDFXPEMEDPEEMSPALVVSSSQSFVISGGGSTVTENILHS
The description is as above. Type of assay: cell-based. On the procedure:
as §1, §2

In assay [5] the target is T2, cCaSR.
Assay [6] addresses T2, cCaSR. Put plainly: cell-based.
Assay [7] concerns the target T2, cCaSR. Put plainly: cCaSR PAM luminescence assay, double injection with 0.5 mM CaCl2, HEK293/T-REx/natClytin-cCaSR. Particulars: Supplementary Table I, PAM assay, dash = no activity.
Assay [8] has as its target domestic cat Calcium Sensing Receptor (cCaSR) (Felis catus).
Assay [9] shares this target. This is another data set of the same source.
Where [10] appears, read: transiently expressed hCaSR, > 3 mM = maximal response not reached, read-out: hCaSR EC50.
[11] abbreviates: transiently expressed cCaSR, > 3 mM = maximal response not reached, read-out: cCaSR EC50.
Setting [12] is: EC50 (M), agonist assay, stable inducible cCaSR line, > 0.01 M = maximal response not reached.
[13] abbreviates: EC50 Ago (M), Supplementary Table I, agonist assay, > 0.01 M = maximal response not reached.
Where [14] appears, read: cCaSR activity, agonist assay, stable inducible cCaSR line, at least three wells.
Setting [15] is: cCaSR stable EC50(mM), stably expressed cCaSR, Fig. 6b, > 3 mM = maximal response not reached.

Read-outs that look alike come from different tables or passages of the source.

`CNc1ccc2oc(C[C@@H]3OC4(CC[C@@H]3C)O[C@H](C(C)C(=O)c3ccc[nH]3)[C@H](C)C[C@H]4C)nc2c1C(=O)O` (stereo partly shown) [Calcium Ionophore, reference compound]: in the assay with cCaSR [1] (agonist assay), the “EC50 Ago (M)” value is listed as “-”. Moreover, in the assay on cCaSR [2], the “EC50 PAM (M)” value is reported as “-”.
Regarding `CN[C@@H]1[C@@H](O)[C@@H](O[C@@H]2[C@@H](O)[C@H](O[C@H]3O[C@H]([C@@H](C)O)[C@@H](O)[C@H](O)[C@H]3N)[C@@H](N)C[C@H]2N)OC[C@]1(C)O` [Geneticin, reference compound], the EC50 at hCaSR (setting [10]) is 3600 µM; in the assay on cCaSR [3], 3000 µM; in the assay on cCaSR [1] (read-out: cCaSR activity, agonist assay, stable inducible cCaSR line, at least three wells), above 10000 µM; with cCaSR [1] (read-out: cCaSR stable EC50, […], > 3 mM = maximal response not reached), 1100 µM. The “EC50 Ago (M)” value in the assay with cCaSR [1] (agonist assay) is “-”. The “EC50 PAM (M)” value with cCaSR [2] is “-”.
Take `N[C@@H](CC(=O)O)C(=O)O` [L-Aspartic acid]: the EC50 was 11900 µM at hCaSR (setting [10]); 11800 µM at cCaSR [4] (setting [11]); 0.00411 M on cCaSR [6] (setting [12]); 0.00411 M at cCaSR [6] (setting [13]); 0.001 to 0.01 M at cCaSR [6] (setting [14]). Further, at cCaSR [5], the “agonist activity on cCaSR (in words)” value is “strong agonist activity”. Moreover, on cCaSR [7], the “EC50 PAM (M)” value is “-”.
In the case of `N[C@@H](CCC(=O)O)C(=O)O` [L-Glutamic acid], the EC50 was above 3000 µM on hCaSR (setting [10]); above 3000 µM at cCaSR [4] (setting [11]); 0.00916 M at cCaSR [6] (setting [13]); 0.00903 M on cCaSR [6] (EC50 Value (heat map Fig. 5), cCaSR agonists, heat map); above 0.01 M at cCaSR [6] (setting [14]); above 0.003 M at cCaSR [6] (cCaSR stable EC50(mM), […], > 3 mM = maximal response not reached). For the same compound, on cCaSR [5], the “agonist activity on cCaSR (in words)” value is recorded as “strong agonist activity”. Also, the “EC50 PAM (M)” value on cCaSR [7] was “-”.
For the compound `NCCCCNCCCN` [Spermidine], the EC50 on hCaSR is 1300 µM; at cCaSR [4], 1100 µM; at cCaSR [6] (setting [12]) it was 0.00249 M; on cCaSR [6] (setting [13]), 0.0025 M; at cCaSR [6] (setting [14]) it was 0.001 to 0.01 M; on cCaSR [6] (setting [15]), 0.0023 M. The “agonist activity on cCaSR (in words)” value at cCaSR [5] is reported as “agonists”. For the same compound, on cCaSR [7], the “EC50 PAM (M)” value is reported as “-”.
Regarding `NC[C@H]1O[C@H](O[C@H]2[C@H](O)[C@@H](O[C@H]3O[C@H](CO)[C@@H](O)[C@H](N)[C@H]3O)[C@H](N)C[C@@H]2N)[C@H](N)C[C@@H]1O` [Tobramycin, reference compound], the EC50 on hCaSR (setting [10]) was 160 µM; on cCaSR [4] (setting [11]), 280 µM; at cCaSR [6] (setting [15]), 4e-05 M. Besides, on cCaSR [5] (Supplementary Table I, agonist assay, dash = no activity), the “EC50 Ago (M)” value is “-”.
Consider Poly-L-arginine (peptide), for which the EC50 of agonist activity, luminescence (natClytin) in HEK T-Rex/natClytin cells inducibly expressing cCaSR, calcium-free buffer; activity grade +++ in [8] was 1.01 µM. Moreover, the EC50 for cCaSR (stably and transiently expressed) against the EC50 for hCaSR, luminescence dose response in HEK293/natClytin cells in assay [9] was found to be 2.5 fold.
